Data taken from ChEMBL document CHEMBL1121792, “Quantitative structure-activity relationships of colchicines against P388 leukemia in mice” (J Med Chem, 1981).

System: not listed separately
Assay: physchem
Conditions: octanol/water
Description: Partition coefficient (logP)

Compound | logP
COc1cc2c(c(OC)c1OC)-c1ccc(OC)c(=O)cc1[C@@H](NC(=O)c1ccc([N+](=O)[O-])cc1)CC2 | 2.96
COc1cc2c(c(OC)c1OC)-c1ccc(SC)c(=O)cc1[C@@H](NC(=O)CCl)CC2 | 2.34
COc1cc2c(c(OC)c1OC)-c1cc/c(=N\Cc3ccccc3)c(O)cc1[C@@H](NC(C)=O)CC2 | 2.14
COc1cc2c(c(OC)c1OC)-c1ccc(SCc3ccccc3)c(=O)cc1[C@@H](NC(C)=O)CC2 | 3.21
CCOC(=O)N[C@H]1CCc2cc(OC)c(OC)c(OC)c2-c2ccc(SC)c(=O)cc21 | 3.12
COc1cc2c(c(OC)c1OC)-c1ccc(SC)c(=O)cc1[C@@H](NC1COC(O)C(O)C1O)CC2 (stereo not given in full) | 1.4
CN[C@H]1CCc2cc(OC)c(OC)c(OC)c2-c2ccc(OC)c(=O)cc21 [DEMECOLCINE] | 1.53
CNc1ccc2c(cc1=O)[C@@H](NC(C)=O)CCc1cc(OC)c(OC)c(OC)c1-2 | 0.58
COc1cc2c(c(OC)c1OC)-c1ccc(OC)c(=O)cc1[C@@H](NC(=O)C(F)(F)F)CC2 | 2.36
COc1cc2c(c(OC)c1OC)-c1ccc(OC)c(=O)cc1[C@@H](N(C)C)CC2 | 2.07
COc1ccc2c(c1OC)-c1ccc(OC)c(=O)cc1[C@@H](NC(C)=O)CC2 | 0.93
COc1cc2c(c(OC)c1OC)-c1ccc(OC)c(=O)cc1[C@@H](NC=O)CC2 | 1.02
COc1cc2c(c(OC)c1OC)-c1ccc(OC)c(=O)cc1[C@@H](NC(=O)c1ccccc1)CC2 | 2.94
COc1cc2c(c(OC)c1OC)-c1ccc(OC)c(=O)cc1[C@@H](N)CC2 [DEACETYLCOLCHICINE] | 1.1
COc1cc2c(c(OC)c1OC)-c1ccc([S+](C)[O-])c(=O)cc1[C@@H](NC(C)=O)CC2 (stereo not given in full) | -0.53
COC(=O)C(N)CCCC/N=c1\ccc2c(cc1O)[C@@H](NC(C)=O)CCc1cc(OC)c(OC)c(OC)c1-2 (stereo not given in full) | -2.1
COc1cc2c(c(OC)c1OC)-c1ccc(SC)c(=O)cc1[C@@H](NC1C(CO)OC(O)C(O)C1O)CC2 (stereo not given in full) | 1.25
COc1cc2c(c(OC)c1OC)-c1ccc(S(=O)(=O)Cc3ccccc3)c(=O)cc1[C@@H](NC(C)=O)CC2 | 0.97
COc1cc2c(c(OC)c1OC)-c1ccc(SC)c(=O)cc1[C@@H](NO[C@H]1[C@H](OC(C)=O)[C@@H](OC(C)=O)[C@H](OC(C)=O)O[C@@H]1COC(C)=O)CC2 | 4.61
COc1cc2c(c(OC)c1OC)-c1ccc(OC)c(=O)cc1[C@@H](NC(C)=O)CC2 [COLCHICINE] | 1.03
COc1cc2c(c(OC)c1OC)-c1ccc(OC)c(=O)cc1[C@@H](NC(=O)CF)CC2 | 1.19
COc1cc2c(c(OC)c1OC)-c1ccc(SC)c(=O)cc1[C@@H](NC(=O)C(F)(F)F)CC2 | 2.99
COc1cc2c(c(OC)c1OC)-c1ccc(SC)c(=O)cc1[C@@H](N)CC2 | 1.73
COc1cc2c(c(OC)c1OC)-c1ccc(SC)c(=O)cc1[C@@H](NC(=O)CO)CC2 | 1.5
COc1cc2c(c(OC)c1OC)-c1ccc(SC)c(=O)cc1[C@@H](NC(=O)NCCCl)CC2 | 3.53
COc1cc2c(c(OC)c1OC)-c1ccc(SC)c(=O)cc1[C@@H](NC(C)=O)CC2 [THIOCOLCHICINE] | 1.66
COc1cc2c(c(OC)c1OC)-c1ccc(S(C)(=O)=O)c(=O)cc1[C@@H](NC(C)=O)CC2 | -0.58
CN[C@H]1CCc2cc(OC)c(OC)c(OC)c2-c2ccc(SC)c(=O)cc21 | 2.22
COc1cc2c(c(OC)c1OC)-c1ccc(OC)c(=O)cc1[C@@H](NC(=O)CCl)CC2 | 1.71

System: P388
Assay: Compound was tested for antitumor activity against lymphocytic leukemia P388 cells in mice
Type: functional, Mus musculus
Conditions: not given

Compound | Log 1/C
COc1cc2c(c(OC)c1OC)-c1ccc(OC)c(=O)cc1[C@@H](N(C)C)CC2 | 4.03
